Results published in US9211311B2, “Methods for the treatment of neurodegenerative disorders” (priority 2010, dated 2015).

Test system: male patients exhibiting PD-induced symptoms
Test: Motor portion of the Unified Parkinson's Disease Rating Scale (UPDRS) before and after intranasal oxytocin
Type: in vivo, human
Conditions: 40 IU intranasal oxytocin; for UPDRS total score after oxytocin therapy: off medications, reassessed 45 minutes to one hour after dosing, items rated 0-4, lower = less severe
Protocol: The participants were in their “off” period, wherein they were taken off their current medications prior to oxytocin therapy. During the experiment, each participant was given 40 IU ([…]) of intranasal oxytocin. The synthetic form of oxytocin was administered by way of an inhaler, such as those used in nasal spray decongestants. Five pumps of the inhaler were dispensed into the left nostril of the participants; the participants were asked to inhale deeply through the nose. Five more pumps were dispensed into the right nostril of the participants and again the participants were asked to inhale deeply. This process was repeated so that, in total, the participants received forty pumps of the inhaler, twenty per nostril.
Immediately following oxytocin infusion, the participants were given a battery of physical and cognitive tests, lasting about fifteen to twenty minutes. These tests included the Motor portion of the Unified Parkinson's Disease Rating Scale (UPDRS) as well as a cognitive test used to establish the mental and emotional status of the participants. For each test, the participants were rated on a scale of zero to four, with four being the symptoms at its most severe state.
After administration of oxytocin, the participants were asked to wait for 45 minutes to one hour, wherein they passed the time by reading, conversing or simply relaxing. Subsequently, the motor skills of the participants were assessed again using the UPDRS. The administration of the UPDRS the first time was to quantifiably evaluate the patient's symptoms uninfluenced by oxytocin infusion, whereas the second administration of the UPDRS test served to quantifiably assess the motor condition of the patient under the influence of oxytocin.
The participants remained under direct supervision throughout the experiment to ensure their comfort and well-being. Once the experimental procedure was completed, the participants were able to leave the clinic and were asked to continue taking their normal medications. The participants were not in any way restricted in their activities for the rest of the day.

With `CC[C@H](C)[C@@H]1NC(=O)[C@H](Cc2ccc(O)cc2)NC(=O)[C@@H](N)CSSC[C@@H](C(=O)N2CCC[C@H]2C(=O)N[C@@H](CC(C)C)C(=O)NCC(N)=O)NC(=O)[C@H](CC(N)=O)NC(=O)[C@H](CCC(N)=O)NC1=O` [oxytocin] the “UPDRS total score after oxytocin therapy” value (participant 1, initial total score 24) was 17, the “decrease in UPDRS total score after oxytocin therapy” value (“decrease in UPDRS total score” below) (participant 1, versus initial total score 24) was 30% and the “UPDRS total score after oxytocin therapy” value (participant 2, initial total score 37.5) was 34.5. For the same compound, the “decrease in UPDRS total score” value (participant 2, versus initial total score 37.5) was 8%, the “UPDRS total score after oxytocin therapy” value (participant 3, initial total score 17.5) was 9.5 and the “decrease in UPDRS total score” value (participant 3, versus initial total score 17.5) was 50%. The “lasting effects due to the administration of oxytocin” value (three male PD patients, observed under supervision throughout the experiment) was “not any lasting effects apparent”.
